Laboratory results: patent publication US11542240B2, “STK19 inhibitors for treatment of cancer” (TRUSTEES OF BOSTON UNIVERSITY, priority 2018, dated 2023)
Like-named read-outs stand apart in the source and are kept apart here.

What was measured:
Assay in all cases: biochemical
Type in all cases: binding
[1] = target: panel of 468 diverse kinases (Homo sapiens, UniProt Q15831); details: LKB1; 1000 nM; read-out: Percent Control
[2] = target: panel of 468 diverse kinases (Homo sapiens, UniProt Q9HC98); details: NEK6; 1000 nM; read-out: Percent Control
[3] = target: panel of 468 diverse kinases (Homo sapiens, UniProt P57059); details: SIK; 1000 nM; read-out: Percent Control
[4] = target: panel of 468 diverse kinases (Homo sapiens, UniProt P24941); details: CDK2; 1000 nM; read-out: Percent Control
[5] = target: panel of 468 diverse kinases (Homo sapiens, UniProt P49841); details: GSK3B; 1000 nM; read-out: Percent Control
[6] = target: panel of 468 diverse kinases (Homo sapiens, UniProt P36888, N841I); details: FLT3(N841I); 1000 nM; read-out: Percent Control
[7] = target: panel of 468 diverse kinases (Homo sapiens, UniProt O43283); details: LZK; 1000 nM; read-out: Percent Control
[8] = target: panel of 468 diverse kinases (Homo sapiens, UniProt P22694); details: PKAC-beta; 1000 nM; read-out: Percent Control
[9] = target: panel of 468 diverse kinases (Homo sapiens, UniProt P36894); details: BMPRIV; 1000 nM; read-out: Percent Control
[10] = target: panel of 468 diverse kinases (Homo sapiens, UniProt P52564); details: MEK6; 1000 nM; read-out: Percent Control
[11] = target: panel of 468 diverse kinases (Homo sapiens, UniProt P42680); details: TEC; 1000 nM; read-out: Percent Control
[12] = target: panel of 468 diverse kinases (Homo sapiens, UniProt P37023); details: ACVRL1; 1000 nM; read-out: Percent Control
[13] = target: panel of 468 diverse kinases (Homo sapiens, UniProt P35590); details: TIE1; 1000 nM; read-out: Percent Control
[14] = target: panel of 468 diverse kinases (Homo sapiens, UniProt P00519); details: 1000 nM, read-out: Percent Control
[15] = target: panel of 468 diverse kinases (Homo sapiens, UniProt Q13627); details: DYRKIV; 1000 nM; read-out: Percent Control
[16] = target: panel of 468 diverse kinases (Homo sapiens, UniProt Q86UX6); details: YANK3; 1000 nM; read-out: Percent Control
[17] = target: panel of 468 diverse kinases (Homo sapiens, UniProt P25098); details: GRK2; 1000 nM; read-out: Percent Control
[18] = target: panel of 468 diverse kinases (Homo sapiens, UniProt P30530); details: AXL; 1000 nM; read-out: Percent Control
[19] = target: panel of 468 diverse kinases (Homo sapiens, UniProt Q16539); details: p38-alpha; 1000 nM; read-out: Percent Control
[20] = target: panel of 468 diverse kinases (Homo sapiens, UniProt O75385); details: ULK1; 1000 nM; read-out: Percent Control
[21] = target: panel of 468 diverse kinases (Homo sapiens, UniProt P00533, G719S); details: EGFR(G719S); 1000 nM; read-out: Percent Control
[22] = target: panel of 468 diverse kinases (Homo sapiens, UniProt P78368); details: CSNK1G2; 1000 nM; read-out: Percent Control
[23] = target: panel of 468 diverse kinases (Homo sapiens, UniProt Q9UEW8); details: STK39; 1000 nM; read-out: Percent Control
[24] = target: panel of 468 diverse kinases (Homo sapiens, UniProt Q96RR4); details: CAMKK2; 1000 nM; read-out: Percent Control
[25] = target: panel of 468 diverse kinases (Homo sapiens, UniProt Q99558); details: NIK; 1000 nM; read-out: Percent Control
[26] = target: panel of 468 diverse kinases (Homo sapiens, UniProt P09769); details: FGR; 1000 nM; read-out: Percent Control
[27] = target: panel of 468 diverse kinases (Homo sapiens, UniProt Q9UQM7); details: CAMK2A; 1000 nM; read-out: Percent Control
[28] = target: panel of 468 diverse kinases (Homo sapiens, UniProt P51617); details: IRAK1; 1000 nM; read-out: Percent Control
[29] = target: panel of 468 diverse kinases (Homo sapiens, UniProt P42336); details: PIK3CA; 1000 nM; read-out: Percent Control
[30] = target: panel of 468 diverse kinases (Homo sapiens, UniProt P54764); details: EPHA4; 1000 nM; read-out: Percent Control
[31] = target: panel of 468 diverse kinases (Homo sapiens, UniProt P42684); details: ABL2; 1000 nM; read-out: Percent Control
panel of 468 diverse kinases (Homo sapiens, UniProt P42684), sequence (P42684 2-1182 limits assumed): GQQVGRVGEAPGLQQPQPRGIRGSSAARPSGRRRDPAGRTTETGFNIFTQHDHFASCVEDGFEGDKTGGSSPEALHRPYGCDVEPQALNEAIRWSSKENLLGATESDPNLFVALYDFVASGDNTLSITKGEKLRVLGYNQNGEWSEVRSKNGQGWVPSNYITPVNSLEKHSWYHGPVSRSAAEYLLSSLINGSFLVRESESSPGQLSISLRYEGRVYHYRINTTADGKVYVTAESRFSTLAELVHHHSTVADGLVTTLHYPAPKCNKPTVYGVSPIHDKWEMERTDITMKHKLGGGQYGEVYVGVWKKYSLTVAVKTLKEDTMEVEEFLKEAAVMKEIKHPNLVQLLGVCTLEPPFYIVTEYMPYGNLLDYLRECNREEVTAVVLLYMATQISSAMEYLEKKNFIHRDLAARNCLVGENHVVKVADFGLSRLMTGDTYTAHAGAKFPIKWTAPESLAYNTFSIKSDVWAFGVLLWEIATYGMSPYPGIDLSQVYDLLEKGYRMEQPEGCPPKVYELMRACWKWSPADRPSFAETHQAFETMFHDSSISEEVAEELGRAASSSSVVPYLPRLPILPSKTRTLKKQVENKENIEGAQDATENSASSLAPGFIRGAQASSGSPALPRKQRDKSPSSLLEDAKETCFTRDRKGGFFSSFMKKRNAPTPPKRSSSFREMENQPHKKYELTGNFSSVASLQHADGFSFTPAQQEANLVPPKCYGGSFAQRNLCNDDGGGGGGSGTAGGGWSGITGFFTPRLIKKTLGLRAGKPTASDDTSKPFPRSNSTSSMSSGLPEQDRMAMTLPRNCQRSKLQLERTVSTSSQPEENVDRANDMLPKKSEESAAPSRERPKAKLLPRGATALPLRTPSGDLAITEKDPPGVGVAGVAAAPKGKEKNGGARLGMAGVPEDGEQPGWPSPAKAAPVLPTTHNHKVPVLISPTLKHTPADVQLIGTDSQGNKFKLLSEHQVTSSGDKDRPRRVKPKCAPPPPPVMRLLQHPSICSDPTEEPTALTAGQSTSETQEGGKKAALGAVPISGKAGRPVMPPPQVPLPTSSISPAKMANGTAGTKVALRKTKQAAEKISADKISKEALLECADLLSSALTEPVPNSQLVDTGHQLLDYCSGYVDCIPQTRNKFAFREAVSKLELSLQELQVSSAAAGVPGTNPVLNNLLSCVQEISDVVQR

panel of 468 diverse kinases (Homo sapiens, UniProt P36894), sequence (P36894 24-532 limits assumed): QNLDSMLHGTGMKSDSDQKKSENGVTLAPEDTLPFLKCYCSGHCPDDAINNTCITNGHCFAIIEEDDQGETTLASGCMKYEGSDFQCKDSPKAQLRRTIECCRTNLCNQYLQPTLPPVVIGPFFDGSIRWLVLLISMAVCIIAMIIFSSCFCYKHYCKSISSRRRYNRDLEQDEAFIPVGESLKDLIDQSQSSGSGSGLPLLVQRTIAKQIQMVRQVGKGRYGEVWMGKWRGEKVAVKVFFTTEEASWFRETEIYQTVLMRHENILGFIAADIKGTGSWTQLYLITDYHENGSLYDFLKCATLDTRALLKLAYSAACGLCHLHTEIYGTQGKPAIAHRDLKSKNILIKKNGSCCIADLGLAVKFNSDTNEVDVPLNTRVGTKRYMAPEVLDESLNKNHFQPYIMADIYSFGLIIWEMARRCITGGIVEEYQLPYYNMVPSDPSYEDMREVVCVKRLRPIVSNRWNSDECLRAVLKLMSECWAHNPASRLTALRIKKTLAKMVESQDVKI
panel of 468 diverse kinases (Homo sapiens, UniProt P37023), sequence (P37023 22-503 limits assumed): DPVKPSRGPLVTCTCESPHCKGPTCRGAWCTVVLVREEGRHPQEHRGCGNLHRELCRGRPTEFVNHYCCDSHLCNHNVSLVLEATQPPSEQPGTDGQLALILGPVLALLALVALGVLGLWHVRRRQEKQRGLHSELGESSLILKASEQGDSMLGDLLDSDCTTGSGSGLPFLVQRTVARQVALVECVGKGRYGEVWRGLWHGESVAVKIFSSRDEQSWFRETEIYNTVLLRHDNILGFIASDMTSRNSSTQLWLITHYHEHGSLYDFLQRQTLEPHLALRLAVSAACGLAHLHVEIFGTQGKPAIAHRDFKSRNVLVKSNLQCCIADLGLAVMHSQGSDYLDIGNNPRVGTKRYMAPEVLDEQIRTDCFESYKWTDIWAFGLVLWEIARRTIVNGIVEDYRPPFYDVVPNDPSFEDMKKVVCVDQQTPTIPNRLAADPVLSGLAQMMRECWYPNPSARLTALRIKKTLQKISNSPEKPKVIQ
panel of 468 diverse kinases (Homo sapiens, UniProt P35590), sequence (P35590 22-1138 limits assumed): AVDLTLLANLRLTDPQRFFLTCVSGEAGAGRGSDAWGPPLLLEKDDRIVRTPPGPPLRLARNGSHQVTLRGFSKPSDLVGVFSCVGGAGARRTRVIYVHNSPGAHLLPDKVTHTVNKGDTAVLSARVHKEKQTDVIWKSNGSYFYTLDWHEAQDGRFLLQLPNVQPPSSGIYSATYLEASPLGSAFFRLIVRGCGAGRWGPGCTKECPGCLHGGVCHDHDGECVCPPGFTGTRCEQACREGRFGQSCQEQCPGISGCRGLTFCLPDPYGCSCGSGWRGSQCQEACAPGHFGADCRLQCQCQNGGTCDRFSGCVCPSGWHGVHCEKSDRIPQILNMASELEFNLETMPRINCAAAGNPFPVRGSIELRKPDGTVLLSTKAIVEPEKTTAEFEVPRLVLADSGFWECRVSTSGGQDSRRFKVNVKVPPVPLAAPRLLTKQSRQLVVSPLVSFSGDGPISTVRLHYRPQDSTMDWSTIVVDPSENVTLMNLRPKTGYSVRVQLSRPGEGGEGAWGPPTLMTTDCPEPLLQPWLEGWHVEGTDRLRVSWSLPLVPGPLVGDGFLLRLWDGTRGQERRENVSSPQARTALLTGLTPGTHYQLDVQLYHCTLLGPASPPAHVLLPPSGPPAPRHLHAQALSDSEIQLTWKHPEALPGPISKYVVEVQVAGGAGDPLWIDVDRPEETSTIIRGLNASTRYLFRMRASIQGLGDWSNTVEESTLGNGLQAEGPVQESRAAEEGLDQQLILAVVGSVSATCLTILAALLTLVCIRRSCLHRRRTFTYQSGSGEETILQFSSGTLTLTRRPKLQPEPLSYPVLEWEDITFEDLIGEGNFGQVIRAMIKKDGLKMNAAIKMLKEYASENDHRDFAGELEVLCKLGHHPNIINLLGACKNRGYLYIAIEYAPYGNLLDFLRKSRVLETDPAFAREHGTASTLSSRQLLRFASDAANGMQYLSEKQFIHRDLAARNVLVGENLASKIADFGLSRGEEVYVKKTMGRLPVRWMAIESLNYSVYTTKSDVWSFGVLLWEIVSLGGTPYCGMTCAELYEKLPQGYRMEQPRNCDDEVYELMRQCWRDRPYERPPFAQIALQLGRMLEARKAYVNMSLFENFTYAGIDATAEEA
panel of 468 diverse kinases (Homo sapiens, UniProt Q16539), sequence (Q16539 2-360 limits assumed): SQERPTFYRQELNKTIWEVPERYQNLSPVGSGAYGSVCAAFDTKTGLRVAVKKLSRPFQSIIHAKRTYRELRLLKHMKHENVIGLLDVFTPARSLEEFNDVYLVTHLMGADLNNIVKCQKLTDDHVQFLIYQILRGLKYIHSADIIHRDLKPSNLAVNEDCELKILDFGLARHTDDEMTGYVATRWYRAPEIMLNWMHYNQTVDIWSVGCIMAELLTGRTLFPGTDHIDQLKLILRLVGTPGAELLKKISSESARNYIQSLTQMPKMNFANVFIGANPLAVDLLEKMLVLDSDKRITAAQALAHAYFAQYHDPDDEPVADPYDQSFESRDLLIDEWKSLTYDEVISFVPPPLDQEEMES
panel of 468 diverse kinases (Homo sapiens, UniProt P09769), sequence (P09769 2-529 limits assumed): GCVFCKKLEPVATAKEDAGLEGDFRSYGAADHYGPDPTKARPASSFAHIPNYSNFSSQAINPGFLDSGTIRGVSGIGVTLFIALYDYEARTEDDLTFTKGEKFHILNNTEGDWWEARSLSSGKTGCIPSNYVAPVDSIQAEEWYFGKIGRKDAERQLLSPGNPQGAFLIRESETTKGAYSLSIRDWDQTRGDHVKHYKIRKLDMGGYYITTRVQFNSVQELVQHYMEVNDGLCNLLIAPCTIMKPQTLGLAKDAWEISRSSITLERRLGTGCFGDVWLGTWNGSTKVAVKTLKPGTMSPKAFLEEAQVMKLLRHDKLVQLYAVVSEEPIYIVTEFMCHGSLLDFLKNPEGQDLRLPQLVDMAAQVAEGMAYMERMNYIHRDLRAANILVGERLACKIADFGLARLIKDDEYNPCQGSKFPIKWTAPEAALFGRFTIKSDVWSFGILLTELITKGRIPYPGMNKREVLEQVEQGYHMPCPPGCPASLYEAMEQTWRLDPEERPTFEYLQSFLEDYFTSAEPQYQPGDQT
panel of 468 diverse kinases (Homo sapiens, UniProt P30530), sequence (P30530 26-894 limits assumed): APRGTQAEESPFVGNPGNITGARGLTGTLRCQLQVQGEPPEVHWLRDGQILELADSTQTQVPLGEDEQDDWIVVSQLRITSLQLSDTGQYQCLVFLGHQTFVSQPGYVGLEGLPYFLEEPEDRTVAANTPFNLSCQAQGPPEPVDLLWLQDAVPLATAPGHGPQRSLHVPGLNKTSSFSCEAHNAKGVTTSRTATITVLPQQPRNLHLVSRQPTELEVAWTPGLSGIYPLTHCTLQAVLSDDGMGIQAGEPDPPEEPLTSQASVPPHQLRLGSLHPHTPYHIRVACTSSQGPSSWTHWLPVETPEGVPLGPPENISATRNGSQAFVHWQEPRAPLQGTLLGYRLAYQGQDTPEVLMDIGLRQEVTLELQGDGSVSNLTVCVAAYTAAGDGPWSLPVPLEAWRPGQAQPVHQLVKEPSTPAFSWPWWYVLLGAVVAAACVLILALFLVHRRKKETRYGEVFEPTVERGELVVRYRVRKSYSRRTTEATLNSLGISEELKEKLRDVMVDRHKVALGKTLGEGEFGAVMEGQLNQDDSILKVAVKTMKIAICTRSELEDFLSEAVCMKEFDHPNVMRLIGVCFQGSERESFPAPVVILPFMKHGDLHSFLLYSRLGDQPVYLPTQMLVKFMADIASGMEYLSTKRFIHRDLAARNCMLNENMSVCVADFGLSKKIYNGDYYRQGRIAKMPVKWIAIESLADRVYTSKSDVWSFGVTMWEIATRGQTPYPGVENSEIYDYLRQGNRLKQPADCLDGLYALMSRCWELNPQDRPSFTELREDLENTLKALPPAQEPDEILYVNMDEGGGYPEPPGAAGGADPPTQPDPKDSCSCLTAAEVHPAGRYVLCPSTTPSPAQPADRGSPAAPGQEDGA

Work on `COc1cc2nc(NC3CC3)nc(NC3CCN(C(C)C)CC3)c2cc1OC` [Formula IV] yielded a remaining activity at 1 µM [1] of 97%, a remaining activity at 1 µM [2] of 83% and a remaining activity at 1 µM [3] of 81%. For the same compound, the remaining activity at 1 µM [4] was 91%, the remaining activity at 1 µM [5] was 72% and the remaining activity at 1 µM [6] was 63%. The remaining activity at 1 µM [7] was 45%, the remaining activity at 1 µM [8] was 96% and the remaining activity at 1 µM [9] was 100%. It also gave a remaining activity at 1 µM [10] of 99%, a remaining activity at 1 µM [11] of 100% and a remaining activity at 1 µM [12] of 99%. For the same compound, the remaining activity at 1 µM [13] was 97%, the remaining activity at 1 µM ([14]; ABL1-nonphosphorylated) was 91% and the remaining activity at 1 µM ([14]; ABL1-phosphorylated) was 88%. It also gave a remaining activity at 1 µM [15] of 60%, a remaining activity at 1 µM [16] of 94% and a remaining activity at 1 µM [17] of 83%. The remaining activity at 1 µM [18] was 94%, the remaining activity at 1 µM [19] was 100% and the remaining activity at 1 µM [20] was 51%. The remaining activity at 1 µM [21] was 91%, the remaining activity at 1 µM [22] was 86% and the remaining activity at 1 µM [23] was 58%. For the same compound, the remaining activity at 1 µM [24] was 100%, the remaining activity at 1 µM [25] was 46% and the remaining activity at 1 µM [26] was 100%. It also gave a remaining activity at 1 µM [27] of 87%, a remaining activity at 1 µM [28] of 80% and a remaining activity at 1 µM [29] of 97%. The remaining activity at 1 µM [30] was 100% and the remaining activity at 1 µM [31] was 98%.
